Results from patent US6136992A, “2-alkoxy estradiols and derivatives thereof” (The United States of America as represented by the …, priority 1998, dated 2000).
pIC50: −log10 of the molar value. Structures can show the parent of a compound that is named as a salt. Where two headings read alike, the source gives them in different places.

Legend:
tubulin = experiment: Inhibition of tubulin polymerization (turbidimetry at 350 nm); type: biochemical, bovine; details: for pIC50: 26° C., 20 min, read-out: Inhibn of Tubulin Polymn IC50
Description: Four instruments were used, and two control reaction mixtures were present in each experiment. […] IC50 values were determined graphically. […]
Inhibition of tubulin polymerization was investigated using electrophoretically homogeneous tubulin from bovine brain.

[1] = tested on: HOP-62 non-small-cell lung cancer cells; experiment: NCI in vitro anticancer screen, HOP-62 non-small-cell lung cancer; type: cell-based; details: Homo sapiens, HOP-62, read-out: cytotoxicity GI50, Lung HOP-62
From the text: (§1) The effects of the analogs on cancer cell growth was investigated in the National Cancer Institute (NCI) Developmental Therapeutics Program's in vitro panel of approximately 55 cell lines (Grever et al., Seminars in Oncology 19:622 (1992), Alley et al., Cancer Research 48:589 (1988) and Montes et al., J. National Cancer Institute 83:757 (1991)). Representative results are listed in Table 1 for HOP-62 non-small-cell lung cancer cells, HCT-116 colon cancer cells, SF-539 central nervous system (CNS) cancer cells, UACC-62 melanoma cells, OVCAR ovarian cancer cells, SN12-C renal cancer cells, DU-145 prostate cancer cells, and MDA-MB-435 breast cancer cells.
(§2) ^a The cytotoxicity GI50 values are the concentrations

[2] = tested on: HCT-116 colon cancer cells; experiment: NCI in vitro anticancer screen, HCT-116 colon cancer; type: cell-based; details: Homo sapiens, HCT-116, read-out: cytotoxicity GI50, Colon HCT-116
From the text: as §1, §2

[3] = tested on: SF-539 central nervous system (CNS) cancer cells; experiment: NCI in vitro anticancer screen, SF-539 CNS cancer; type: cell-based; details: Homo sapiens, read-out: cytotoxicity GI50, CNS SF-539
From the text: as §1, §2

UACC-62 melanoma cells = experiment: NCI in vitro anticancer screen, UACC-62 melanoma; type: cell-based; details: Homo sapiens, UACC-62, read-out: cytotoxicity GI50, Melanoma UACC-62
From the text: as §1, §2

[4] = tested on: OVCAR ovarian cancer cells; experiment: NCI in vitro anticancer screen, OVCAR ovarian cancer; type: cell-based; details: Homo sapiens, read-out: cytotoxicity GI50, Ovarian OVCAR
From the text: as §1, §2

[5] = tested on: SN12-C renal cancer cells; experiment: NCI in vitro anticancer screen, SN12-C renal cancer; type: cell-based; details: Homo sapiens, SN12C, read-out: cytotoxicity GI50, Renal SN12-C
From the text: as §1, §2

[6] = tested on: DU-145 prostate cancer cells; experiment: NCI in vitro anticancer screen, DU-145 prostate cancer; type: cell-based; details: Homo sapiens, DU-145, read-out: cytotoxicity GI50, Prostate DU-145
From the text: as §1, §2

[7] = tested on: MDA-MB-435 breast cancer cells; experiment: NCI in vitro anticancer screen, MDA-MB-435 breast cancer; type: cell-based; details: Homo sapiens, MDA-MB-435, read-out: cytotoxicity GI50, Breast MDA-MB-435
From the text: The effects of the analogs on cancer cell growth was investigated in the National Cancer Institute (NCI) Developmental Therapeutics Program's in vitro panel of approximately 55 cell lines (Grever et al., Seminars in Oncology 19:622 (1992), Alley et al., Cancer Research 48:589 (1988) and Montes et al., J. National Cancer Institute 83:757 (1991)).

[8] = tested on: all human cancer cell lines (approximately 55); experiment: NCI in vitro anticancer screen, all cell lines; type: cell-based
From the text: as §1
^b Mean graph midpoint for all human cancer cell lines (approximately

estrogen receptor = target: T1, estrogen receptor (Rattus norvegicus, UniProt P06211); experiment: Estrogen binding affinity assay (comparative radiometric binding, rat uterine cytosol); details: for RBA (relative binding affinity): 0° C., estradiol = 100
T1 construct: from tissue; host or cells: rat uterine cytosol
T1 sequence (P06211 1-600): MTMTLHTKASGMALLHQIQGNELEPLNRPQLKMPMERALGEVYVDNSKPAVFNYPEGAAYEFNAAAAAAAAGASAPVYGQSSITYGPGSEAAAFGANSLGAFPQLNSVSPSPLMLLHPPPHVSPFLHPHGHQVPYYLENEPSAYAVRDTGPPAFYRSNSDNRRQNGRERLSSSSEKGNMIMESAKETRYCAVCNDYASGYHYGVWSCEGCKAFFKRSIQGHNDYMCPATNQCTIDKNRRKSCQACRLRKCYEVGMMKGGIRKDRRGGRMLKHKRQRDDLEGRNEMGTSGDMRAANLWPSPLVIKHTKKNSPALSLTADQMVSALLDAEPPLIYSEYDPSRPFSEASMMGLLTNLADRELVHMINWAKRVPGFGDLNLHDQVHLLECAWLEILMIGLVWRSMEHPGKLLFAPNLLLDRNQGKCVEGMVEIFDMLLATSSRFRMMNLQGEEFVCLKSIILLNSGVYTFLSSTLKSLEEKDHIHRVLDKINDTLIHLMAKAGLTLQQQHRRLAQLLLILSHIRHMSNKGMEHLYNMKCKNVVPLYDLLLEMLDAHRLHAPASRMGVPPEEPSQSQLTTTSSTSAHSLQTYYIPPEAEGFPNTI
Description: The assay of (11), (12) and (16) were conducted at 0° C. for 20 hours, while those for (1) and (2) were performed at 0° C. for 18 hours.

solid tumors = details: cited from earlier work
[9] = approximately 55 cell lines, read-out: MGM (mean graph midpoint for all human cancer cell lines), GI50
[10] = read-out: MGM (mean graph midpoint for all human cancer cell lines), GI50

SMILES | pIC50 (tubulin) | GI50 [1] [µM] | GI50 [2] [µM] | GI50 [3] [µM] | GI50 (UACC-62 melanoma cells) [µM] | GI50 [4] [µM] | GI50 [5] [µM] | GI50 [6] [µM] | GI50 [7] [µM] | GI50 [8, 9] [µM] | inhibition of tubulin polymerization, relative activity in words (tubulin; comparison with 2-methoxy estradiol (1) or 2-ethoxy estradiol (2)) | GI50 [8, 10] [µM] | affinity for the estrogen receptor, in words (estrogen receptor) | RBA (relative binding affinity) (estrogen receptor; 20 hours) | GI50 ([8]; read-out: GI50) [µM] | RBA (relative binding affinity) (estrogen receptor; 18 hours) | inhibition of neovascularization and growth of solid tumors in mice (solid tumors) | signs of toxicity at tumor-inhibiting doses (solid tumors; mice)
CC(=O)Oc1cc2c(cc1OCC(F)(F)F)[C@H]1CC[C@]3(C)[C@@H](OC(C)=O)CC[C@H]3[C@@H]1CC2=O [Compound 6, 2-(2',2',2'-Trifluoroethoxy)-3,17β-Diacetyloxy-Estra-6-Oxo-1,3,5(10)-Triene] | 5.22 | 8.7 | 3.71 | 5.11 | 3.33 | 3.52 | 23.5 | 15 | 26.5 | 9.77 |  |  |  |  |  |  |  | 
CCOc1cc2c(cc1O)C(=NN)C[C@@H]1[C@@H]2CC[C@]2(C)[C@@H](O)CC[C@@H]12 [Compound 13, 2-Ethoxy-6-Hydrazone-estra-1,3,5(10)-Triene-3,17β-Diol] | 4.82 | 1.18 | 2.12 | 2.76 | 0.88 | 5.43 | 16.8 | 17 | 6.5 | 4.17 |  |  |  |  |  |  |  | 
CCOc1cc2c(cc1OC(C)=O)C(=O)C[C@@H]1[C@@H]2CC[C@]2(C)[C@@H](OC(C)=O)CC[C@@H]12 [Compound 7, 2-Ethoxy-3,17β-Diacetoxy-6-Oxoestra-1,3,5(10)-triene] | < 4.40 | 20 | 21.1 | 22.6 | 17.7 | 23.7 | 19.8 | 19.8 | 18.4 | 19.5 |  |  |  |  |  |  |  | 
C[C@]12CC[C@@H]3c4cc(OCC(F)(F)F)c(O)cc4CC[C@H]3[C@@H]1CC[C@@H]2O [Compound 3, 2-(2',2',2'-trifluoroethoxy)estra-3,17β-diol] | 5.77 |  |  |  |  |  |  |  |  |  |  |  |  |  |  |  |  | 
CCOc1cc2c(cc1O)CC[C@@H]1[C@@H]2CC[C@]2(C)[C@@H](O)CC[C@@H]12 [Compound 2, 2-ethoxy estra-1,3,5(10)-trien-3,17β-diol] | 6.04 |  |  |  |  |  |  |  |  |  | over three times more active than 2-methoxy estradiol (1) |  |  |  |  |  |  | 
CCOc1cc2c(cc1O)CC[C@@H]1[C@@H]2CC[C@]2(C)C(N)CC[C@@H]12 (stereo partly drawn) [Compound 20, 2-Ethoxy-3-Hydroxy-17-α/β-Aminoestra-1,3,5(10)-Triene Hydrochloride] | < 4.40 | 10.9 | 3.15 | 3.99 | 3.61 | 1.25 | 5.24 | 1.93 | 1.74 | 3.31 |  |  |  |  |  |  |  | 
CCOc1cc2c(cc1O)[C@@H](O)C[C@@H]1[C@@H]2CC[C@]2(C)[C@@H](O)CC[C@@H]12 [Compound 14, 2-Ethoxyestra-1,3,5(10)-Triene-3,6α,17β-Triol] | 5.60 |  | 0.35 |  | 0.28 | 0.35 | 0.66 | 0.71 | 5.39 | 0.83 |  |  |  |  |  |  |  | 
CCOc1cc2c(cc1O)C(=NOC)C[C@@H]1[C@@H]2CC[C@]2(C)[C@@H](O)CC[C@@H]12 [Compound 16, 2-Ethoxy-6-(O-Methyl)hydroximino-Estra-1,3,5(10)-Triene-3,17β-Diol] | 6.12 | < 0.01 | < 0.01 |  | < 0.01 | < 0.01 | 0.26 | 0.32 | 0.02 |  |  | 0.24 | no affinity for the estrogen receptor | < 0.001 |  |  |  | 
CCOc1cc2c(cc1O)C(=NO)C[C@@H]1[C@@H]2CC[C@]2(C)[C@@H](O)CC[C@@H]12 [Compound 11, 2-Ethoxy-6-Hydroximinoestra-1,3,5(10)-Triene-3,17β-Diol] | 6.21 | < 0.01 | < 0.01 |  | < 0.01 | < 0.01 | < 0.01 | < 0.01 | < 0.01 |  |  | 0.04 | no affinity for the estrogen receptor | < 0.001 | < 0.01 |  |  | 
CCOc1cc2c(cc1O)C(=NNS(=O)(=O)c1ccc(C)cc1)C[C@@H]1[C@@H]2CC[C@]2(C)[C@@H](O)CC[C@@H]12 [Compound 15, 2-Ethoxy-6-Tosylhydrazone-Estra-1,3,5(10)-Triene-3,17β-Diol] | < 4.40 | 5.14 | 6.67 | 3.45 |  | 3.18 | 12.1 | 14.9 |  | 6.16 |  |  |  |  |  |  |  | 
CCOc1cc2c(cc1O)C(=O)C[C@@H]1[C@@H]2CC[C@]2(C)[C@@H](O)CC[C@@H]12 [Compound 10, 2-Ethoxy-6-Oxoestra-1,3,5(10)-Triene-3,17β-Diol] | 5.32 | 0.03 | 0.02 | 0.71 | 0.01 | 0.63 | 0.18 | 0.17 | < 0.01 |  |  | 0.13 |  |  |  |  |  | 
COc1cc2c(cc1O)CC[C@@H]1[C@@H]2CC[C@]2(C)[C@@H](O)CC[C@@H]12 [Compound 1, 2-methoxy estradiol, reference compound] | 5.54 |  |  |  |  |  |  |  |  |  |  |  |  |  |  | 0.245 | potent inhibitor of neovascularization of solid tumors and inhibits their growth | no apparent signs of toxicity
